Test results as given in PMC7774954, “Interactomic affinity profiling by holdup assay: Acetylation and distal residues impact the PDZome-binding specificity of PTEN phosphatase” (PLoS ONE, 2020).
*1 amine or outer side, *2 acyl side, *3 side chain or, on linkers, in order; H or OH if unused. Where a SMILES comes first, the peptide text is derived from it. The star is where a group is joined. X1 = O=C(CCCC[C@@H]1SC[C@@H]2NC(=O)N[C@@H]21)NCCCOCCOCCOCCCN*; Suc = O=C(CCC(=O)[*:2])[*:1]

System: 266 human PDZ domains (PDZome)
Assay: Holdup assay (chromatographic retention, PDZome-binding profile, BI)
Set-up: key to maximal BI / Max BI / BI: binding intensity: 0.00 = no binding, 1.00 = maximal binding; Log(Kd): unit not given here
Method: The holdup method is a chromatographic approach in solution developed in our group that allows to measure the binding strength of a peptide, attached to a resin, against a library of domains of a same family. We initially proposed this method to explore the interaction between PBM peptides and the human PDZ domains. Briefly, a soluble cell lysate containing individually overexpressed PDZ domain is incubated until equilibrium with a calibrated amount of streptavidin-resin saturated either with the target biotinylated PBM peptide or with biotin as a reference. The flow-throughs containing the unbound protein fraction are recovered by filtration and loaded on a capillary electrophoresis instrument to quantify the amount of remaining free PDZ. The stronger the steady-state depletion of the PDZ domain in the flow-through as compared to the reference, the stronger the PDZ/PBM binding interaction. The assay is particularly suited to quantitatively evaluate and compare large numbers of interactions. This method delivers, for each PBM/PDZ pair, a "binding intensity" (BI), whose value can in principle range from 0.00 (no binding event detected) to 1.00 (maximal binding event). The approach has been automated and the human PDZ library was recently extended to the complete 266 PDZ domains known in human proteome. […] The high accuracy and efficiency of the holdup assay have been validated previously. Very recently, a manual version of the holdup assay with purified samples and using widespread benchtop equipment has been implemented and has proven to be reliable.
The 266 PDZ domains that constitute the PDZ library (“PDZome V.2”) used in the present work were produced using constructs with optimized boundaries as described previously. All the genes were fused to Maltose-Binding Protein (MBP) or Thioredoxin (THR) tag often used to facilitate the solubilisation of the over-expressed protein, by cloning them into the pETG41A or pETG20A plasmid, respectively. […] The expressed tag-PDZ concentrations were quantified using capillary gel electrophoresis and cell lysates were diluted to reach approximately 5 μM tag-PDZ before freezing in 96-well plates. A detailed protocol of the PDZ library production, expression and benchmarking can be found in [32]. PDZ domains are named according to their originating protein name followed by the PDZ number (e.g. NHERF1-1 as the first PDZ domain of the NHERF1 protein).
The holdup assay was performed on a Tecan freedom Evo200 robot with 384-well plates in singlicate for the three 11-mer PTEN variants and the 13-mer PTEN peptide as described in [31, 32]. Briefly, prior to interaction assay, 2.5 μL of streptavidin resin was saturated in each well with 20 μL of biotinylated PBM peptides (42 μM) and then washed twice with an excess of free biotin, while the reference resin was incubated only with biotin. Right before the holdup experiment, the PDZ library was spiked with an internal standard of lysozyme. Then, the biotin- or PBM-saturated resin was incubated, each in a distinct well of a 384-well plate, with complete cell lysates diluted so that the concentration of the tag-PDZ present in the crude extract is adjusted at 4 μM. After a sufficient time to reach complex equilibrium (15 min.), a fast and mild filtration step is performed and the tag-PDZ concentrations were measured by capillary electrophoresis instrument (LabChip GXII, PerkinElmer, Massachusets, USA). Standard markers were used to convert migration time into molecular weight on the LabChip software and inappropriate molecular weight markers were corrected or excluded.
Holdup data quality check and processing […]

[1] = PDZ domain PARD3-1, first of two lines so named (r186)

`CC[C@H](C)[C@H](NC(=O)[C@H](CCC(N)=O)NC(=O)[C@@H](NC(=O)[C@H](Cc1c[nH]cn1)NC(=O)[C@H](CCC(N)=O)NC(=O)[C@H](CC(=O)O)NC(=O)[C@H](CCC(=O)O)NC(=O)[C@H](CC(=O)O)NC(=O)[C@H](Cc1ccccc1)NC(=O)[C@@H]1CCCN1C(=O)CCC(=O)NCCCOCCOCCOCCCNC(=O)CCCC[C@@H]1SC[C@@H]2NC(=O)N[C@@H]21)[C@@H](C)O)C(=O)N[C@H](C(=O)N[C@@H](CCCCN)C(=O)N[C@H](C(=O)O)C(C)C)[C@@H](C)O` [PTEN_13] ({X1-Suc}-PFDEDQHTQITKV-OH) was tested, and the “number of additional new PDZ partners not detected for PTEN_11” value (BI>0.20, compared with PTEN_11) was 24, the BI (PDZ domain MPDZ-2) was 0.095 and the BI (PDZ domain MPDZ-3) was 0.139. It also gave a BI (PDZ domain MPDZ-4) of 0.035, a BI (PDZ domain MPDZ-5) of -0.002 and a BI (PDZ domain MPDZ-6) of -0.029. It also gave a BI (PDZ domain MPDZ-7) of 0.23, a BI (PDZ domain MPDZ-8) of 0.039 and a BI (PDZ domain MPDZ-9 (gene NHERF2, 2)) of -0.021. For the same compound, the BI (PDZ domain MPDZ-12) was 0.024, the BI (PDZ domain MPDZ-13) was 0.225 and the BI (PDZ domain MPP1-1) was -0.074. The BI (PDZ domain MPP2-1) was -0.014, the BI (PDZ domain MPP3-1) was -0.03 and the BI (PDZ domain MPP4-1) was 0. It also gave a BI (PDZ domain MPP5-1) of 0.002, a BI (PDZ domain MPP6-1) of -0.068 and a BI (PDZ domain MPP7-1) of -0.02. For the same compound, the BI (PDZ domain NHERF1-2) was 0.132, the BI (PDZ domain NHERF3-1) was 0.161 and the BI (PDZ domain NHERF3-2) was 0.06. The BI (PDZ domain NHERF3-3) was 0.068, the BI (PDZ domain NHERF3-4) was -0.008 and the BI (PDZ domain NHERF4-1) was 0.09. For the same compound, the BI (PDZ domain NHERF4-2) was 0.132, the BI (PDZ domain NHERF4-3) was 0.208 and the BI (PDZ domain NHERF4-4) was -0.036. For the same compound, the BI (PDZ domain NOS1-1) was 0.002, the BI [1] was 0.146 and the “Log(Kd)” value [1] was 4.018. It also gave a BI (PDZ domain PARD3-2) of -0.023, a BI (PDZ domain PARD3B-1) of -0.096 and a BI (PDZ domain PARD3B-2) of 0.088. For the same compound, the BI (PDZ domain PARD3B-3) was 0.134, the BI (PDZ domain PARD6A-1) was -0.115 and the BI (PDZ domain PARD6G-1) was -0.065. It also gave a BI (PDZ domain PCLO-1) of -0.006, a BI (PDZ domain PDLIM1-1) of -0.067 and a BI (PDZ domain PDLIM2-1) of -0.078. For the same compound, the BI (PDZ domain PDLIM3-1) was 0.139, the BI (PDZ domain PDLIM4-1) was 0.003 and the BI (PDZ domain PDLIM5-1) was -0.025. For the same compound, the BI (PDZ domain PDLIM7-1) was 0.039, the BI (PDZ domain PDZD2-1) was -0.006 and the BI (PDZ domain PDZD2-2) was 0.054. It also gave a BI (PDZ domain PDZD2-3) of -0.045, a BI (PDZ domain PDZD2-4) of 0.107 and a BI (PDZ domain PDZD2-5) of 0.195. It also gave a BI (PDZ domain PDZD2-6) of -0.066, a BI (PDZ domain PDZD4-1) of 0.025 and a BI (PDZ domain PDZD7-1) of -0.034. It also gave a BI (PDZ domain PDZD7-2) of -0.061, a BI (PDZ domain PDZD7-3) of 0.811 and a BI (PDZ domain PDZD8-1) of 0.038. For the same compound, the BI (PDZ domain PDZD9-1) was 0.075, the BI (PDZ domain PDZD11-1) was -0.022 and the BI (PDZ domain PDZRN3-1) was 0.024. It also gave a BI (PDZ domain PDZRN3-2) of 0.032, a BI (PDZ domain PDZRN4-1) of -0.022 and a BI (PDZ domain PDZRN4-2) of -0.019. It also gave a BI (PDZ domain PICK1-1) of 0.089, a BI (PDZ domain PPP1R9A-1) of -0.068 and a BI (PDZ domain PPP1R9B-1) of -0.064. For the same compound, the BI (PDZ domain PREX1-1) was -0.02, the BI (PDZ domain PREX1-2) was 0.087 and the BI (PDZ domain PREX2-1) was 0.032. For the same compound, the BI (PDZ domain PREX2-2) was -0.046, the BI (PDZ domain PRX-1) was -0.006 and the BI (PDZ domain PSCDBP-1) was 0.094. The BI (PDZ domain PSMD9-1) was 0.022, the BI (PDZ domain PTPN3-1) was 0.015 and the BI (PDZ domain PTPN4-1) was 0.026. It also gave a BI (PDZ domain PTPN13-1) of 0.009, a BI (PDZ domain PTPN13-3) of -0.036 and a BI (PDZ domain PTPN13-5) of 0.022. The BI (PDZ domain RADIL-1) was 0.092, the BI (PDZ domain RAPGEF2-1) was -0.023 and the BI (PDZ domain RAPGEF6-1) was -0.02. For the same compound, the BI (PDZ domain RGS3-1) was 0.249, the BI (PDZ domain RGS12-1) was 0.04 and the BI (PDZ domain RHPN1-1) was 0.479. It also gave a BI (PDZ domain RHPN2-1) of 0.033, a BI (PDZ domain RIMS1-1) of -0.009 and a BI (PDZ domain RIMS2-1) of -0.031. It also gave a BI (PDZ domain SCRIB-1) of 0.173, a BI (PDZ domain SCRIB-2) of -0.031 and a BI (PDZ domain SCRIB-4) of -0.007. The BI (PDZ domain SDCBP2-1) was 0.022, the BI (PDZ domain SDCBP2-2) was -0.007 and the BI (PDZ domain SDCBP-2) was -0.032. It also gave a BI (PDZ domain SHROOM2-1) of -0.059, a BI (PDZ domain SHROOM3-1) of -0.047 and a BI (PDZ domain SHROOM4-1) of -0.086. The BI (PDZ domain SIPA1-1) was -0.045, the BI (PDZ domain SIPA1L1-1) was 0.023 and the BI (PDZ domain SIPA1L2-1) was -0.04. For the same compound, the BI (PDZ domain SIPA1L3-1) was -0.026, the BI (PDZ domain SNTA1-1) was 0.142 and the BI (PDZ domain SNTB1-1) was 0.224. For the same compound, the BI (PDZ domain SNTG1-1) was 0.14, the BI (PDZ domain SNTG2-1) was 0.015 and the “number of PDZ domains identified as potential binders (BI>0.20)” value (holdup, singlicate, threshold BI>0.20) was 24 PDZ domains. For the same compound, the “maximal BI” value (holdup, singlicate, highest BI in the PDZome profile, BI standard error ~0.07) was 0.81, the “effect on PDZ binding profile (in words)” value (holdup/FP profile, compared with PTEN_11) was “markedly stronger compared to the affinities observed for the same PDZ partners in PTEN_11” and the “Max BI” value (maximum over PDZome) was 0.88.
